Measured values published in PMC6550177, “Statuses of food-derived glutathione in intestine, blood, and liver of rat” (NPJ Science of Food, 2018).
“Also recorded” adds a separate entry of the source.

Columns and labels:
[1] = Food-derived glutathione in washed intestine and liver after oral gavage of 13C-labeled compound (LC-MS/MS); settings: rat
Protocol: Rats were acclimatized for a week, divided into four groups, and were given 1 mL of glutathione-1-^13C (50 mg/kg body weight) or NAC-1-^13C (50 mg/kg body weight) solutions using an oral gavage.
Portions of the thoroughly washed intestines and livers were homogenized in the same weight of PBS using a BioMasher (Nippi, Tokyo, Japan). The obtained homogenates were then mixed with the same volumes of 10% (v/v) TCA-4% (v/v) 2-mercaptoethanol and allowed to stand for 30 min at 25°C. The supernatant was collected and used to determine the total amounts of glutathione and related peptides. Another set of intestines and livers were homogenized in the same volume of PBS containing 20 mM NEM and then allowed to stand for 10 min at 25 °C. The homogenate were further diluted with another three fold volumes of PBS without NEM, and mixed with the same volume of 10% (v/v) TCA. […] The precipitate was washed with the same weight of 10% TCA three times, and the protein-bound form of glutathione was extracted with the same weight of 10% TCA-4% 2-mercaptoethanol as described above.
The 5% TCA–2% 2-mercaptoethanol extracts (50 μL) were dried under vacuum to remove excess amounts of 2-mercaptoethanol; thereafter, 20 μL of an alkaline solution was added to neutralize the extracts and they were again dried under vacuum.
With NEM, glutathione disulfide was conjugated with two molecules of AccQs, and the resultant AccQ derivative of glutathione disulfide was subjected to the LC-MS/MS as described above.

[2] = rat
Protocol: (§1) All animals were treated and cared in accordance with the National Institutes of Health’s guidelines for the use of experimental animals. All experimental procedures were approved by the Animal Care Committee of Kyoto Prefectural University (No. KPU260400-260421). Seven-week-old Wister rats (body weight 200–220 g) were housed in a 12-h light-dark cycle and allowed free access to standard rat chow and water. […] The plasma was prepared by centrifugation at 800×g for 10 min at 4 °C. The liver and small intestines were taken from the rats. The intestines were flushed with about 40 mL of cold PBS to remove its contents. The blood in the liver was purged by infusing cold PBS into the portal vein. Samples were stored at −80 °C until use.
(§2) The plasma (100 μL) was mixed with three fold volumes of ethanol. The supernatant and precipitate obtained were harvested by centrifugation at 14,200×g at 4 °C for 10 min. The supernatant was referred to as the low-molecular-weight fraction of the plasma. Aliquots of the low-molecular-weight fraction (300 μL each) were dried under vacuum, and processed using two methods. Some dried aliquots were treated with 50 μL of 5% TCA-2% 2-mercaptoethanol solution for 30 min and used in determining the total glutathione and related peptides. Free and bound-form glutathione were bound to 2-mercaptoethnol.[6] Other dried aliquots of the fraction (300 μL) were treated with 50 μL of 20 mM NEM in PBS for 10 min. Only free glutathione bound to NEM, as NEM has no reducing activity. The reaction was terminated by adding 50 μL of 5% TCA solution. The NEM-treated fraction was used in determination of the reduced-form of glutathione and glutathione disulfide.
(§3) The ethanol precipitate of the plasma was further washed with 200 μL of 75% (v/v) ethanol twice. The residue was collected by centrifugation at 14,200×g at 4 °C. Protein-bound glutathione and related peptides were liberated from the residue by extracting with 100 μL of 5% TCA-2% 2-mercaptoethanol with occasional agitation for 30 min. The supernatant obtained after centrifugation was used to determine the protein-bound form of glutathione and related peptides.[6]
(§4) The 5% TCA–2% 2-mercaptoethanol extracts (50 μL) were dried under vacuum to remove excess amounts of 2-mercaptoethanol; thereafter, 20 μL of an alkaline solution was added to neutralize the extracts and they were again dried under vacuum. The residues were mixed with 20 μL of 20 mM HCl, 60 μL of the sodium borate buffer provided with the AccQ Tag Ultra Derivatization Kit, and 20 μL of 0.3% (w/v) AccQ acetonitrile solution and heated at 50 °C for 10 min to obtain their AccQ derivatives. Then, the reaction mixtures were diluted with adequate amounts of 5 mM sodium phosphate buffer (pH 7.4) containing 10% (v/v) acetonitrile and filtered using a 0.45-μm filter (Cosmonice filter W, Nacalai Tesque). The filtrates were subjected to LC-MS/MS using a 3200 QTRAP system (AB SCIEX, Framingham, MA) as previously described.[6]
(§5) Without 2-mercaptoethanol, the sulfhydryl group of glutathione was conjugated with NEM in PBS. The NEM-glutathione derivative was directly subjected to LC-MS/MS to determine the reduced-form of glutathione. With NEM, glutathione disulfide was conjugated with two molecules of AccQs, and the resultant AccQ derivative of glutathione disulfide was subjected to the LC-MS/MS as described above. Reduced-form glutathione (2 nmol) was added to the ethanol-soluble fraction of plasma from portal blood.

[3] = mice, 12 weeks supplementation, 50 mg/kg body weight, preliminary experiment
[4] = tested on: peroxisome proliferator-activated receptor gamma coactivator 1-alpha (PGC-1α); settings: cited from earlier work
in vivo = settings: Wister, rat, po, 50 mg/kg, 60 min after ingestion
Protocol: as §1, §2, §3, §4, §5

[5] = oral administration, vs placebo controls; cited from earlier work
[6] = oral administration, vs placebo controls; cited from earlier work; remark: listed apart in the source
[7] = patients with non-alcoholic fatty liver disease, oral administration; cited from earlier work
[8] = humans, dietary supplementation; cited from earlier work
[9] = animals, oral administration; cited from earlier work

CC(=O)N[C@@H](CS)[13C](=O)O [NAC, N-acetylcysteine-1-^13C]
Food-derived glutathione in intestines and liver after ingestion of NAC ([1]; oral 50 mg/kg): present
NAC-derived glutathione (and fragment peptides) in blood plasma ([2]; oral 50 mg/kg, within 120 min, 50 mg/kg): not detected; also recorded: no significant amounts

N[C@@H](CCC(=O)N[C@@H](CS)C(=O)NCC(=O)O)C(=O)O [glutathione, γ-L-glutamyl-L-cysteinyl-glycine]
Food-derived Cys-Gly, γ-Glu-Cys and glutathione disulfide in the liver without blood [1]: negligible amounts
Food-derived glutathione as share of total glutathione in the liver ([1]; 120 min after administration at 50 mg/kg): approximately 5%
Food-derived glutathione in protein-bound fraction, plasma from portal vein vs inferior vena cava ([2]; after oral glutathione): insignificantly different
Reduced-form glutathione and glutathione disulfide in low-molecular-weight fraction of plasma from portal vein ([2]; after oral glutathione, LC-MS/MS multi-reaction monitoring): no reduced-form glutathione and glutathione disulfide were detected
Liver glutathione levels compared to controls [3]: did not significantly increase
PGC-1α / mitochondrial biogenesis ([4]; previous animal experiment): enhances mitochondrial biogenesis by increasing
concentration at 60 min (in vivo; Food-derived glutathione level in low-molecular-weight fraction of blood from hepatic portal vein): ~400 nM
concentration at 60 min (in vivo; Food-derived glutathione level in low-molecular-weight fraction of blood from inferior vena cava): < 100 nM
Melanin indices on the skin [5]: reduce melanin indices on the skin
Exercise-induced fatigue [6]: reduce
Plasma alanine aminotransferase and free fatty acid levels [7]: significantly reduce
Protein-bound glutathione in the blood plasma [8]: increase
Liver glutathione level [9]: increase the liver glutathione level

N[C@@H](CCC(=O)N[C@@H](CS)[13C](=O)NCC(=O)O)C(=O)O [glutathione-1-^13C, Glutathione-1-^13C]
Food-derived Cys-Gly and γ-Glu-Cys in intestines and liver ([1]; in vivo, po): negligible amounts
Food-derived glutathione content in intestine ([1]; in vivo, po, 50 mg/kg): approximately 60 μmol/kg
Food-derived glutathione content in liver ([1]; in vivo, po, 50 mg/kg): ~300 µmol/kg
Food-derived Cys-Gly and γ-Glu-Cys in plasma ([2]; in vivo, po): significant amounts
Status (form) of food-derived glutathione in blood plasma ([2]; in vivo, po, 50 mg/kg): conjugated with proteins and low-molecular-weight thiol compounds

vitamin E
Exercise-induced increase of PGC-1α [4]: suppress

O=C1O[C@H]([C@@H](O)CO)C(O)=C1O [vitamin C]
Exercise-induced increase of PGC-1α [4]: suppress
